# Measured values: US12281123B2, “Benzoxazinone compounds as KLK5/7 dual inhibitors” (MOLECULAR SKIN THERAPEUTICS, INC., priority 2019, dated 2025)
# Several values for one entry are separate records, joined by “and”; a condition that tells them apart may be missing. Equal entries are not always repeated. Where two headings read alike, the source gives them in different places.
# Key:
# Type in all cases: biochemical
# [1] = biological target: T1, Recombinant human KLK5 (Homo sapiens, UniProt Q9Y337); assay: Recombinant KLK5 chromogenic IC50 assay
# T1 construct: purchased SpeedBio (Gaithersburg, MD) / SpeedBioSystems; host or cells: HEK293
# T1 sequence (Q9Y337 23-293): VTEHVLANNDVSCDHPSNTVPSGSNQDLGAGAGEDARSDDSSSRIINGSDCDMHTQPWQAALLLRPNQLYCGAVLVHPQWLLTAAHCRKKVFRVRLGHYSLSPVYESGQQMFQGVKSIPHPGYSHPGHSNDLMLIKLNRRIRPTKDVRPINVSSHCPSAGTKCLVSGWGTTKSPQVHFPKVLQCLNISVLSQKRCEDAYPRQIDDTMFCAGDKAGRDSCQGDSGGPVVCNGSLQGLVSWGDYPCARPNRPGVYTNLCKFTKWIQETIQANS
# Source text: (§1) Human Kallikrein Proteins: Recombinant human KLK5 expressed in HEK293 was obtained from SpeedBio (Gaithersburg, MD). Recombinant proenzyme KLK-7 and recombinant proenzyme KLK-14 both expressed in mouse myeloma cells were from R&D Biosystems (Minneapolis, MN). Plasmin and thrombin were from Haematologic Technologies (Essex Junction, VT). Trypsin and Chymotrypsin were bought from Worthington Biochemical Corporation (Lakewood, NJ) and plasma kallikrein was from Prospec (East Brunswick, NJ). Neutrophil Elastase was obtained from Innovative Research (Peary Court, MI). Bovine recombinant enterokinase expressed in E. coli was bought from Sigma (St. Louis, MI). Matriptase expressed in E. coli was obtained from Enzo Life Sciences (Farmingdale, NY). The control inhibitors Nafamostat mesylate was from Sigma (St. Louis, MI) and (2-(2-fluorophenyl)-5,6,7,8-tetrahydro-4H-benzo[4,5]thieno[2,3-d][1,3]oxazin-4-one was from Interbioscreen (Moskow, Russia).
# (§2) Substrates: S-2288 (D-Ile-Pro-Arg-pNA), CS-PSA (MeO-Suc-Arg-Pro-Tyr-pNA), S-2266 (H-D-Val-Leu-Arg-pNA) and S-2288 (H-D-Ile-Pro-Arg-pNA) were bought from Diapharma (West Chester, OH). MeOSuccAla-Ala-Pro-Val-pNA was purchased from Sigma (St Louis, MI). The substrates were dissolved in water at 10 mM and were frozen in aliquots at −20° C.
# (§3) Assays: All assays were performed in 384 well polystyrene plates coated overnight with 0.1% Tween 20 at 4° C. The plates were then washed twice with 100 μL water and dried. For the determination of IC50 values, the inhibitors were diluted in serial dilutions of 1:3 intervals into pure DMSO at 50 fold of the intended final concentrations in the assays. Usually eight inhibitor dilutions and one DMSO control were prepared. The substrates were diluted into water at 2.2-fold the final concentration in the assay mixture. The wells of the plate were filled with 50 μL of the enzyme diluted in 2× assay buffer (100 mM Tris, 200 mM NaCl, 0.2% PEG, 0.01% Tween, 2 mM EDTA, pH 8.0) at twofold the intended concentration. Then 5 μL DMSO, 2.2 μL inhibitor and 45 μL substrate were added to start the reaction. The assays were monitored at 37° C. in a multi well plate reader at a wavelength of 405 nm (Molecular Devices, San Jose, CA) for 1 h. The tool inhibitor, nafamostat, was used as a control for trypsin, thrombin, KLK-5 and KLK-14 at 10 μM maximal concentration and (2-(2-fluorophenyl)-5,6,7,8-tetrahydro-4H-benzo[4,5]thieno[2,3-d][1,3]oxazin-4-one for KLK-7 at 5 μM.
# The table summarizes assay conditions for the individual enzymes:
# Data analysis: The progress curves of substrate hydrolysis were analyzed by linear regression of the final 20 min of the reaction. Fit of the dose response of the resulting rates to the following equation yielded the IC50:
# [formula] with 1) c: the background rate at the highest inhibitor concentration; 2) d: the rate of the control reaction; 3) IC50: the IC50 of the inhibitor; 4) x: the inhibitor concentration; and 5) b: the slope.
# Proteases: KLK5 (SpeedBioSystems); KLK7 (R&Dsystems) was activated with enterokinase (2 hours, 37° C.) prior to assay; Trypsin (Sigma Aldrich); Chymotrypsin (Sigma Aldrich); Factor Xa (Haematologic Technologies); Plasmin (Haematologic Technologies); KLK14 (R&Dsystems) was activated with enterokinase (1 hour, 37° C.) prior to assay; Thrombin (Haematologic Technologies); Neutrophil Elastase (Athens Research&Technology); and KLK1 (Prospec).
# [2] = biological target: T2, KLK1 (Homo sapiens, UniProt P06870); assay: Chromogenic assay, KLK1; conditions: KLK1 10 nM; S-2266 200 μM; highest conc. of 1.001 50 μM
# T2 construct: purchased Prospec
# T2 sequence (P06870 25-262): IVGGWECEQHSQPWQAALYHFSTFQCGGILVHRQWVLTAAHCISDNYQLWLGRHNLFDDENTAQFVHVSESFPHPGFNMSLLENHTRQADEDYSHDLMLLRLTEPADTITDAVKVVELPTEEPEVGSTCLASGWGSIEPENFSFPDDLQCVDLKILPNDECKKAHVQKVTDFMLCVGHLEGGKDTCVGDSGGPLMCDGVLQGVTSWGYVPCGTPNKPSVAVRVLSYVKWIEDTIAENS
# Experimental: as §2
# as §3, with “The tool inhibitor, nafamostat, was used as a control for trypsin, thrombin, KLK-5 and KLK-14 at 10 μM maximal concentration and (2-(2-fluorophenyl)-5,6,7,8-tetrahydro-4H-benzo[4,5]thieno[2,3-d][1,3]oxazin-4-one for KLK-7 at 5 μM.” left out
# (§4) Data analysis: The progress curves of substrate hydrolysis were analyzed by linear regression of the final 20 min of the reaction. […]
# [3] = biological target: T3, Factor Xa (Homo sapiens, UniProt P00742); assay: Chromogenic assay, Factor Xa; conditions: Factor Xa 0.5 nM; S-2288 500 μM; highest conc. of 1.001 20 μM
# T3 construct: purchased Haematologic Technologies
# T3 sequence (P00742 235-488 limits assumed): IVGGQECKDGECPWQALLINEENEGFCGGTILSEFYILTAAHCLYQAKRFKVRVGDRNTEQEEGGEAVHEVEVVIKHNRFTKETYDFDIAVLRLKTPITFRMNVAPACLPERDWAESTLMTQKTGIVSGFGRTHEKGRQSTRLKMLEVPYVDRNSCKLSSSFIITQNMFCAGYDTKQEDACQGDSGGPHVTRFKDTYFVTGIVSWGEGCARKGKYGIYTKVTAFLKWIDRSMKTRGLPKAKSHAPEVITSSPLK
# T3 sequence (P00742 41-179 partner limits assumed): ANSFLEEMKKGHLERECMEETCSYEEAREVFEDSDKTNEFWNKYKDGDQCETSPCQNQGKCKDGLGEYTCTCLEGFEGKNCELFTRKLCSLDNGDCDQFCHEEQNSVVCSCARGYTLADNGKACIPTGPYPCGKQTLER
# Experimental: as §3
# Data analysis: The progress curves of substrate hydrolysis were analyzed by linear regression of the final 20 min of the reaction. Fit of the dose response of the resulting rates to the following equation yielded the IC50: […]
# [4] = biological target: Chymotrypsin (Bos taurus, UniProt P00766); assay: Chromogenic assay, chymotrypsin
# Source text: as §1, §2
# Assays: All assays were performed in 384 well polystyrene plates coated overnight with 0.1% Tween 20 at 4° C. The plates were then washed twice with 100 μL water and dried. For the determination of IC50 values, the inhibitors were diluted in serial dilutions of 1:3 intervals into pure DMSO at 50 fold of the intended final concentrations in the assays. Usually eight inhibitor dilutions and one DMSO control were prepared. The substrates were diluted into water at 2.2-fold the final concentration in the assay mixture. […] The assays were monitored at 37° C. in a multi well plate reader at a wavelength of 405 nm (Molecular Devices, San Jose, CA) for 1 h. […]
# as §4
# [5] = tested on: proteases; assay: Chromogenic assay, protease panel (conclusion); conditions: conclusion from Table 3, all proteases tested
# Experimental: as §3, with “μM. […]” for “μM.”
# [6] = Chymotrypsin 0.2 nM, CS-PSA 500 μM, highest conc. of 1.001 50 μM
compound,measurement,setting,value
"CS(=O)(=O)c1cc(CO)ccc1-c1nc2cc3c(cc2c(=O)o1)OCCO3 [Compound 1.001, 2-(4-(Hydroxymethyl)-2-(methylsulfonyl)phenyl)-7,8-dihydro-4H-[1,4]dioxino[2′,3′:4,5]benzo[1,2-d][1,3]oxazin-4-one]",IC50,"[1]; Table 2, assay protocol of Example 3, read-out: Recombinant KLK5 enzyme (IC50)",0.21 µM
same,IC50,"[1]; Table 3, KLK5 10 nM, S-2288 500 μM, highest conc. of 1.001 10 μM, read-out: IC50 (μM), KLK5",0.176 µM and 0.188 µM
same,"Inhibition of KLK5, conclusion in words",[1]; conclusion from Table 3,inhibitor
same,"IC50 (μM), KLK1",[2],No inhibition
same,IC50,[3],3.22 µM and 10.4 µM and 3.94 µM
same,IC50,[4]; [6],0.249 µM and 0.317 µM
same,"Inhibition of Chymotrypsin, conclusion in words",[4]; conclusion from Table 3,inhibitor
"CS(=O)(=O)c1cc(CO)ccc1C(=O)Nc1cc2c(cc1C(=O)O)OCCO2 [Compound 408, reference compound]","IC50 (μM), KLK5","[1]; Table 3, KLK5 10 nM, S-2288 500 μM, highest conc. of 1.001 10 μM",No inhibition
same,"IC50 (μM), KLK1",[2],No inhibition
same,"Inhibition of proteases, conclusion in words",[5],unable to inhibit proteases
same,"IC50 (μM), Factor Xa",[3],No inhibition
same,"IC50 (μM), Chymotrypsin",[4]; [6],No inhibition
